Read-outs that look alike come from different tables or passages of the source.
Assays:
[1] = biological target: FLAG-tagged Vanin-1 (AA 22-493, T26I) (Homo sapiens (Human), UniProt O95497, T26I); test: Vanin-1 enzymatic assay (pantothenic acid formation, RapidFire Mass Spectrometry); format: biochemical; conditions: read-out: VNN 1 IC50
Protocol: The test compounds are dissolved in 100% DMSO at a concentration of 10 mM and in a first step diluted in DMSO to a concentration of 5 mM, followed by serial dilution steps in 100% DMSO. Dilution factor and number of dilution steps may vary according to needs. Typically 8 different concentrations by 1:5 dilutions are prepared, a further intermediate dilutions of the substances is carried out with assay buffer resulting in 1% final DMSO concentration in the assay.
Method 1): 0.15 nM of FLAG-tagged Vanin-1 (AA 22-493, T26I, produced internally) and test compounds are incubated at room temperature for 15 minutes in assay buffer (1 mM DTT, 0.0025% Brij-35, 50 mM HEPES, pH7.5). 3 μM D-Pantethine (Sigma, Cat#P2125-5G) in assay buffer is added and incubated for additional 30 minutes at room temperature. Reaction is stopped by adding equal volume of stop solution as the reaction mixture to reach 5 nM Nevirapine (as an internal standard) and 0.5% TFA. Assay plates are centrifuged for 2 minutes and the formation of pantothenic acid is detected by RapidFire Mass Spectrometry (mobile phase A: 0.1% formic acid in water, mobile phase B: 100% methanol) using graphitic carbon cartridge (Agilent Cat #G9206A).
Method 2): 0.1 nM of FLAG-tagged Vanin-1 (AA 22-493, T26I, produced internally) and test compounds are incubated at room temperature for 20 minutes in assay buffer (1 mM DTT, 0.0025% Brij-35, 50 mM HEPES, pH7.5). D-Pantethine (Sigma, Cat#P2125-5G) in assay buffer is added (final concentration 3 μM) and incubated for additional 30 minutes at room temperature. Total assay volume typically is 40 μl but might be adjusted according to needs. Reaction is stopped by adding equal volume of stop solution as the reaction mixture to reach 100 nM HD-pantothenic acid (as an internal standard) and 1% TFA. Assay plates are centrifuged for 2 minutes and the formation of pantothenic acid is detected by RapidFire Mass Spectrometry (mobile phase A: 0.1% formic acid and 0.01% trifluoroacetic acid in water; mobile phase B: 47.5% acetonitrile, 47.5% methanol, 0.1% formic acid and 0.01% trifluoroacetic acid in water) using a C18, 12 μL cartridge (Agilent Cat #G9205A).
The values given in Table I result from measurements of one or more samples. In case of multiple measurements the geometric mean values determined by method 1 and/or method 2 are given.

human whole blood = test: Human Whole Blood assay (HWB; pantothenic acid formation from D-Pantethine); format: cell-based; conditions: 10 μM D-Pantethine, 30 minutes at room temperature, geometric mean if multiple measurements
Protocol: 250 μl human whole blood and 7 μl pre-diluted compound in RPMI 1640 media are incubated at room temperature for 15 minutes on an orbital shaker. 10 μl of D-Pantethine (Sigma, Cat#P2125-5G) is added, resulting in 10 μM final concentration, for additional 30 minutes incubation at room temperature. The reaction is stopped by placed on ice for 5 minutes. Assay plates are centrifuged at 1800 rpm at 4° C. for 10 minutes. 80 μl of plasma is mixed with 80 μl of ice-cold acetonitrile and is left on ice for 5 minutes. The reaction mixture is centrifuged at 4000 rpm for 10 min at 4° C. 50 μl of the supernatant is mixed with 150 μl of ice-cold H2O. The above solution is mixed with equal volume of stop solution to reach 5 nM Nevirapine (as an internal standard) and 0.4% TFA. The mixture is centrifuged at 4000 rpm for 10 minutes. The formation of pantothenic acid is detected by RapidFire Mass Spectrometry (mobile phase A: 0.1% Formic acid in water, mobile phase B: 100% Methanol) using graphitic carbon cartridge (Agilent Cat #G9206A). Please see Table I for results. The values given in Table I result from measurements of one or more samples. In case of multiple measurements the geometric mean values are given.

[2] = VNN1-assay method 1: 0.15 nM Vanin-1, 15 min preincubation, 3 μM D-Pantethine, geometric mean if multiple measurements
[3] = VNN1-assay method 2: 0.1 nM Vanin-1, 20 min preincubation, 3 μM D-Pantethine, geometric mean if multiple measurements
[4] = VNN1-assay methods 1 + 2: geometric mean of values determined by method 1 and method 2

Sequence of FLAG-tagged Vanin-1 (AA 22-493, T26I) (O95497 22-493 T26I): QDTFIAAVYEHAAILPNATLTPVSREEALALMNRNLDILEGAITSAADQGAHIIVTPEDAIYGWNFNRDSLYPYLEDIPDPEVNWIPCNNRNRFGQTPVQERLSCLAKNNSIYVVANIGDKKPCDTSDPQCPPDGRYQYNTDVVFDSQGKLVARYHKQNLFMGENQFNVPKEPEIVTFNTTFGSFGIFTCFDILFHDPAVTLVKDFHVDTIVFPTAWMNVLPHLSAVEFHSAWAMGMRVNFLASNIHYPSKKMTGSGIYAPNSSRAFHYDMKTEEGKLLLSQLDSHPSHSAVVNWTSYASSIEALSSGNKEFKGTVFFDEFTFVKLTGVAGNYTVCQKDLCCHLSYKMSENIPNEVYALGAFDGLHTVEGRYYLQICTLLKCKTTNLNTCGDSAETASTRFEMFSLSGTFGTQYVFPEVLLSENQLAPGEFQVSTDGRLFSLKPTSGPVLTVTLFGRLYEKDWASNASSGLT

Row | Structure (SMILES) | IC50 [1, 2] [nM] | IC50 (human whole blood; Homo sapiens, 0.5 h) [nM] | IC50 [1, 3] [nM] | IC50 [1, 4] [nM] | IC50 (human whole blood) [nM]
1 | CC(=O)N(C)[C@H]1CCN(C(=O)c2cnc3c(c2)OC[C@@H](C(C)C)N3)C1 [Example 2] | 3.6 | 26 |  |  | 
2 | CN([C@H]1CCN(C(=O)c2cnc3c(c2)OCC2(CC2)N3)C1)S(=O)(=O)C1CC1 [Example 19] |  | 39 | 2.3 |  | 
3 | CC(=O)N(C)[C@H]1CCN(C(=O)c2cnc3c(c2)O[C@H](CO)CN3)C1 [Example 41] |  | 18 |  |  | 
4 | C[C@H]1CNc2ncc(C(=O)N3CCC(c4ccncc4)C3)cc2O1 (some centres unmarked) [Example 34] |  | 44 |  | 3.5 | 
5 | O=C(c1cnc2c(c1)OCCN2)N1CCC(c2ccncc2)C1 (centres unmarked) [Example 38] |  | 210 |  |  | 
6 | CC(=O)N(C)[C@H]1CCN(C(=O)c2cnc3c(c2)O[C@@H](C)CN3)C1 [Example 35] |  | 190 |  | 26.1 | 
7 | CC(C)[C@@H]1COc2cc(C(=O)N3CCC(c4ccncc4)C3)cnc2N1 (some centres unmarked) [Example 8] | 17.2 |  |  |  | 
8 | CC(=O)N(C)[C@H]1CCN(C(=O)c2cnc3c(c2)OCCC2(CC2)N3)C1 [Example 37] |  | 6.3 |  | 0.2 | 
9 | CC(=O)N(C)[C@H]1CCN(C(=O)c2cnc3c(c2)OCC(C)(C)N3)C1 [Example 14] |  | 12 |  |  | 
10 | O=C(c1cnc2c(c1)O[C@H](CO)CN2)N1CCC(c2ccncc2)C1 (some centres unmarked) [Example 43] |  | 66 |  |  | 
11 | CC(C)[C@H]1COc2cc(C(=O)N3CCC(c4ccncc4)C3)cnc2N1 (some centres unmarked) [Example 10] | 2.4 | 146 |  |  | 
12 | O=C(c1cnc2c(c1)OC[C@H](c1ccccc1)N2)N1CCC(c2ccncc2)C1 (single isomer, unassigned) [Example 11] | 19 |  |  |  | 3700
13 | O=C(c1cnc2c(c1)OCC1(CC1)N2)N1CC[C@H](N2CCOC2=O)C1 [Example 16] |  | 8.9 | 0.6 |  | 
14 | CC(=O)N(C)[C@H]1CCN(C(=O)c2cnc3c(c2)OCC(C)(C)CN3)C1 [Example 42] |  | 16 |  | 1.1 | 
15 | CN1C(=O)CC[C@@]12CCN(C(=O)c1cnc3c(c1)OCCC1(CC1)N3)C2 [Example 24] |  | 6.5 | 0.6 |  | 
16 | CC(=O)N(C)[C@H]1CCN(C(=O)c2cnc3c(c2)OCCN3)C1 [Example 39] |  | 120 |  |  | 
17 | O=C(c1cnc2c(c1)OCC1(CC1)N2)N1CCC(c2ccncc2)C1 (single isomer, unassigned) [Example 20] | 1.9 |  |  |  | 130
18 | CC(=O)N(C)[C@H]1CCN(C(=O)c2cnc3c(c2)OC[C@H](C(C)C)N3)C1 [Example 9] | 1.5 | 23 |  |  | 
19 | CC(=O)N(C)[C@H]1CCN(C(=O)c2cnc3c(c2)OCCCN3)C1 [Example 44] |  | 23 |  |  | 
20 | O=C(c1cnc2c(c1)OCCC1(CC1)N2)N1CC[C@H](N2CCCC2=O)C1 [Example 25] |  | 3.1 | 0.1 |  | 
21 | CC(=O)N(C)[C@H]1CCN(C(=O)c2cnc3c(c2)OC[C@H](c2ccccc2)N3)C1 [Example 30] |  | 43 |  | 2.4 | 

Row | Structure (SMILES) | IC50 [1, 2] [nM] | IC50 (human whole blood; Homo sapiens, 0.5 h) [nM] | IC50 [1, 3] [nM] | IC50 [1, 4] [nM] | IC50 (human whole blood) [nM]
22 | CC(=O)N(C)[C@H]1CCN(C(=O)c2cnc3c(c2)OCC2(CC2)N3)C1 [Example 21] |  | 10 |  | 0.4 | 
23 | CC(=O)N(C)[C@H]1CCN(C(=O)c2cnc3c(c2)OC[C@@H](C)N3)C1 [Example 29] |  | 28 |  | 3.3 | 
24 | CC(=O)N(C)[C@H]1CCN(C(=O)c2cnc3c(c2)OC[C@H](C)N3)C1 [Example 13] |  | 23 |  | 1.8 | 
25 | CN1C(=O)CC[C@]12CCN(C(=O)c1cnc3c(c1)OCCC1(CC1)N3)C2 [Example 23] |  | 50 | 8.1 |  | 
26 | CC[C@@H]1COc2cc(C(=O)N3CC[C@H](N(C)C(C)=O)C3)cnc2N1 [Example 1] |  | 20 |  | 3.3 | 
27 | CN(C(=O)C1COC1)[C@H]1CCN(C(=O)c2cnc3c(c2)OCC2(CC2)N3)C1 [Example 18] |  | 12 | 0.9 |  | 
28 | C[C@@H]1CNc2ncc(C(=O)N3CCC(c4ccncc4)C3)cc2O1 (some centres unmarked) [Example 33] | 2.5 | 34 |  |  | 
29 | CN1C(=O)CCC12CCN(C(=O)c1cnc3c(c1)OCCC1(CC1)N3)C2 (centres unmarked) [Example 27] |  | 11 | 1.09 |  | 
30 | O=C(c1cnc2c(c1)OC[C@@H](c1ccccc1)N2)N1CCC(c2ccncc2)C1 (some centres unmarked) [Example 7] | 6200 |  |  |  | 
31 | O=C(c1cnc2c(c1)OCCC1(CC1)N2)N1CC[C@H](N2CCOC2=O)C1 [Example 26] |  | 5.9 | 0.2 |  | 
32 | CC(=O)N(C)[C@H]1CCN(C(=O)c2cnc3c(c2)O[C@H](C)CN3)C1 [Example 32] |  | 14 |  |  | 
33 | O=C(c1cnc2c(c1)OCC1(CC1)N2)N1CC[C@H](N2CCCC2=O)C1 [Example 15] |  | 7.8 | 0.7 |  | 
34 | C[C@@H]1COc2cc(C(=O)N3CCC(c4cccnc4)C3)cnc2N1 (some centres unmarked) [Example 28] | 3.8 | 168 |  |  | 
35 | CC[C@H]1COc2cc(C(=O)N3CC[C@H](N(C)C(C)=O)C3)cnc2N1 [Example 4] | 1.3 | 22 |  |  | 
36 | C[C@H]1COc2cc(C(=O)N3CCC(c4ccncc4)C3)cnc2N1 (some centres unmarked) [Example 40] |  | 87 |  | 1.7 | 
37 | CC(=O)N(C)[C@H]1CCN(C(=O)c2cnc3c(c2)OC[C@@H](c2ccccc2)N3)C1 [Example 31] |  |  |  | 1750 | 
38 | CC[C@H]1COc2cc(C(=O)N3CCC(c4ccncc4)C3)cnc2N1 (some centres unmarked) [Example 5] |  | 76 |  | 3.1 | 
39 | O=C(c1cnc2c(c1)OC[C@H](c1ccccc1)N2)N1CCC(c2ccncc2)C1 (single isomer, unassigned) [Example 12] | 1.8 |  |  |  | 330
40 | O=C(c1cnc2c(c1)OCC1(CC1)N2)N1CCC(c2ccncc2)C1 (single isomer, unassigned) [Example 22] | 0.4 |  |  |  | 37
41 | CN(C(=O)C1CC1)[C@H]1CCN(C(=O)c2cnc3c(c2)OCC2(CC2)N3)C1 [Example 17] |  | 8.8 | 0.7 |  | 
42 | CC[C@@H]1COc2cc(C(=O)N3CCC(c4ccncc4)C3)cnc2N1 (some centres unmarked) [Example 6] | 8.9 | 99 |  |  | 
